{
  "source": "patent US20090269352A1",
  "about": "“ANTITUMOR AGENT COMPRISING SULFONAMIDE-CONTAINING HETEROCYCLIC COMPOUND COMBINED WITH AN ANGIOGENESIS INHIBITOR” (priority 2002, published 2009)",
  "key": {"KP-1 cells": {"system": "KP-1 cells", "assay": "Mouse model with grown cancer, KP-1", "type": "in vivo, mice (KSN Slc, female)", "conditions": "KP-1 tumor; oral, 2 weeks; relative tumor volume treated/control", "description": "(§1) 1×10^7 KP-1 or Colo320DM cells/0.1 ml PBS/mouse were inoculated subcutaneously to mice (KSN Slc, female). From 1 to 2 weeks after the transplantation, 0.5% aqueous methyl cellulose solution, E7820 (0.5% methyl cellulose suspension: 50, 100, 200 mg/kg: twice a day), or ZD6474 (0.5% methyl cellulose suspension: 50, 100 mg/kg: once a day), or both of E7820 (50, 100, 200 mg/kg: twice a day) and ZD6474 (50, 100 mg/kg: once a day), were orally administered for 2 weeks. The transplanted tumor volume was measured twice every week, and the relative tumor volume was calculated according to the following equation: Relative tumor volume=tumor volume on the day after last administration/tumor volume at first administration.\n(§2) The antitumor effect was expressed in T/C % (T/C %=relative tumor volume in the chemical administration group/relative tumor volume in the control group)."}, "[1]": {"system": "Human umbilical vein endothelial cells", "assay": "Proliferation of VEGF-induced endothelial cells, combination with E7820", "type": "cell-based", "conditions": "inhibition rate (fa) 0.5, 20 ng/ml VEGF; for Combination index (CI): formula of Chou et al.", "description": "(§3) On the next day, ½ serial dilutions of VEGF receptor kinase inhibitors (ZD6474, ZD4190, SU5416, SU6668) or VEGF antibody as VEGF inhibitors, ½ serial dilutions of VEGF antibody, ½ serial dilutions of E7820, and dilutions containing two of the above substances were prepared respectively, and each dilution was added in a volume of 100 μl/well to each well containing the cultured human umbilical vein endothelial cells, and the cells were further cultured.\n(§4) After 3 days, 5 ml cell counting kit solution (Wako Pure Chemical Industries, Ltd.) were diluted with PBS to give 40 ml dilution, and 50 μl of this dilution were added to each well, then incubated at 37° C. for 3 to 4 hours and measured for its absorbance at 415 nm by a plate reader (Corona Denki Co., Ltd.)."}, "[2]": {"system": "Human umbilical vein endothelial cells (HUVEC)", "assay": "Tube formation of endothelial cell, VEGF inhibitor wells, combination with E7820", "experimental": "(§5) 400 μl of type I collagen gel (Nitta Gelatin) were added onto each well of a 24-well plate (FALCON) and gelled at 37° C. in a CO2 incubator for 40 min. A serum-free medium (human endothelial-SFM basal growth medium; GIBCO BRL) containing 20 ng/ml EGF (GIBCO BRL) was prepared, and 200 μl of this medium solution were added onto each well containing the type I collagen gel. Human umbilical vein endothelial cells (HUVEC) were suspended in a serum-free medium (human endothelial-SFM basal growth medium; GIBCO BRL) to prepare a cell suspension at a density of 5×10^5 cells/ml. 200 μl of this suspension were put into each well containing the type I collagen gel and serum-free medium, and cultured overnight.\n(§6) After incubation, […] of 3.3 mg/ml MTT (SIGMA) were added into each well and reacted at 37° C. in a CO2 incubator for 3 hours to stain the cells. Under a microscope (SZX12 manufactured by OLYMPUS), an image of a tube formed by HUVEC was incorporated (M-3204C manufactured by OLYMPUS). The tube length in the incorporated image was measured by image analysis software Mac SCOPE 2.56 (manufactured by MITANI) to quantify the tube formation of HUVEC."}, "KP-1 or Colo320DM cells": {"system": "KP-1 or Colo320DM cells", "assay": "Mouse model with grown cancer (FIG. 1, tumor not given)", "type": "in vivo, mice (KSN Slc, female)", "conditions": "oral, 2 weeks", "description": "as §1, §2"}, "Colo320DM cells": {"system": "Colo320DM cells", "assay": "Mouse model with grown cancer, Colo320DM", "type": "in vivo, mice (KSN Slc, female)", "conditions": "Colo320DM tumor; oral, 2 weeks; relative tumor volume treated/control", "description": "as §1, §2"}, "[3]": {"system": "Human umbilical vein endothelial cells", "assay": "Proliferation of FGF-induced endothelial cells, combination with E7820", "type": "cell-based", "conditions": "inhibition rate (fa) 0.5, 20 ng/ml bFGF; for Combination index (CI): formula of Chou et al.", "description": "as §3, with “FGF” for “VEGF”, “(PD166866, PD173074)” for “(ZD6474, ZD4190, SU5416, SU6668)”, “inhibitors,” for “inhibitors, ½ serial dilutions of VEGF antibody,”\nas §4"}, "[4]": {"system": "Human umbilical vein endothelial cells (HUVEC)", "assay": "Tube formation of endothelial cell, FGF inhibitor wells, combination with E7820", "type": "cell-based", "conditions": "inhibition rate (fa) 0.5, 10 ng/ml EGF and 20 ng/ml bFGF", "experimental": "as §5, §6"}},
  "data": [
    {"smiles": "COc1cc2c(Nc3ccc(Br)cc3F)ncnc2cc1OCC1CCN(C)CC1", "note": "[ZD6474]", "values": [
      {"measurement": "T/C %", "setting": "KP-1 cells", "result": 47, "unit": "%"},
      {"measurement": "Combination effect", "setting": "[1]", "result": "Synergistic"},
      {"measurement": "Combination index (CI)", "setting": "[1]", "result": 0.4},
      {"measurement": "Combination effect", "setting": "[2]; inhibition rate (fa) 0.5, 10 ng/ml EGF and 20 ng/ml VEGF", "result": "Synergistic"},
      {"measurement": "Combination index (CI)", "setting": "[2]; inhibition rate (fa) 0.5, tube length, 10 ng/ml EGF and 20 ng/ml VEGF", "result": 0.4},
      {"measurement": "Tumor growth / antitumor effect (FIG. 1)", "setting": "KP-1 or Colo320DM cells", "result": "tumor growth was inhibited"},
      {"measurement": "T/C %", "setting": "Colo320DM cells", "result": 56, "unit": "%"}
    ]},
    {"smiles": "COc1cc2c(Nc3ccc(Br)cc3F)ncnc2cc1OCCn1ccnn1", "note": "[ZD4190]", "values": [
      {"measurement": "Combination effect", "setting": "[1]", "result": "Synergistic"},
      {"measurement": "Combination index (CI)", "setting": "[1]", "result": 0.3}
    ]},
    {"smiles": "CCN(CC)CCCCNc1ncc2cc(-c3cc(OC)cc(OC)c3)c(NC(=O)NC(C)(C)C)nc2n1", "note": "[PD173074]", "values": [
      {"measurement": "Combination effect", "setting": "[3]", "result": "Synergistic"},
      {"measurement": "Combination index (CI)", "setting": "[3]", "result": 0.4}
    ]},
    {"smiles": "Cc1ccc(NS(=O)(=O)c2cccc(C#N)c2)c2[nH]cc(C#N)c12", "note": "[E7820]", "values": [
      {"measurement": "T/C %", "setting": "KP-1 cells", "result": 83, "unit": "%"},
      {"measurement": "Tumor growth / antitumor effect (FIG. 1)", "setting": "KP-1 or Colo320DM cells", "result": "tumor growth was inhibited"},
      {"measurement": "T/C %", "setting": "Colo320DM cells", "result": 60, "unit": "%"}
    ]},
    {"smiles": "COc1cc(OC)cc(-c2cc3cnc(N)nc3nc2NC(=O)NC(C)(C)C)c1", "note": "[PD166866]", "values": [
      {"measurement": "Combination effect", "setting": "[3]", "result": "Synergistic"},
      {"measurement": "Combination index (CI)", "setting": "[3]", "result": 0.5},
      {"measurement": "Combination effect", "setting": "[4]", "result": "Synergistic"}
    ]},
    {"smiles": "Cc1[nH]c(/C=C2\\C(=O)Nc3ccccc32)c(C)c1CCC(=O)O", "note": "[SU6668]", "values": [
      {"measurement": "Combination effect", "setting": "[1]", "result": "Synergistic"},
      {"measurement": "Combination index (CI)", "setting": "[1]", "result": 0.5}
    ]},
    {"smiles": "Cc1cc(C)c(/C=C2\\C(=O)Nc3ccccc32)[nH]1", "note": "[SU5416]", "values": [
      {"measurement": "Combination effect", "setting": "[1]", "result": "Synergistic"},
      {"measurement": "Combination index (CI)", "setting": "[1]", "result": 0.4}
    ]}
  ]
}
